For one molecule, EC50 results are on record in publication PMC6779273, “Emodepside has sex-dependent immobilizing effects on adult Brugia malayi due to a differentially spliced binding pocket in the RCK1 region of the SLO-1 K channel” (PLoS Pathogens, 2019).

Test [1] has as its target T1, Bma-SLO-1A (SLO-1 K channel, splice variant A) (Brugia malayi, UniProt A0A0H5S223).
T1 construct: full-length slo-1a splice variant
As to the kind of experiment: two-electrode voltage clamp, Xenopus laevis oocytes expressing slo-1a (small but detectable outward current). In kind it is cell-based. From the text:
two-electrode voltage clamp, Xenopus laevis oocytes expressing slo-1a (small but detectable outward current) on Bma-SLO-1A (SLO-1 K channel, splice variant A) | When we expressed slo-1a, or slo-1a with slo-1f (Fig 4C & 4D), we found much smaller, but still detectable currents.
A general note: Two-electrode voltage clamp holds a large cell at a set potential and records current.

Test [2] has as its target T2, Bma-SLO-1F (SLO-1 K channel, splice variant F) (Brugia malayi, UniProt A0A0J9Y9H3).
T2 construct: full-length slo-1f splice variant
Put plainly: two-electrode voltage clamp, Xenopus laevis oocytes expressing slo-1f (activation of outward current). It is filed as cell-based.

As a reminder, the EC50 is the concentration at which the effect is half-maximal. Low values mean an effect from little substance, high ones a need for much substance. `CC(C)C[C@H]1C(=O)O[C@H](Cc2ccc(N3CCOCC3)cc2)C(=O)N(C)[C@@H](CC(C)C)C(=O)O[C@H](C)C(=O)N(C)[C@@H](CC(C)C)C(=O)O[C@H](Cc2ccc(N3CCOCC3)cc2)C(=O)N(C)[C@@H](CC(C)C)C(=O)O[C@H](C)C(=O)N1C` [emodepside]: the EC50 is more than 30 µM in test [1] and 5 ± 1 µM in test [2].
